Measurements published in patent publication US20230172831A1, “COSMETIC” (SHIN-ETSU CHEMICAL CO., LTD., priority 2020, published 2023).
Where two headings read alike, the source gives them in different places.

Tests used:
[1] = Solubility of oily component solid at 25° C. and crystallization test (polyethylene); assay type: physicochemical; parameters: key to dissolution state: excellent: “Excellent” indicates uniform dissolution; “good” indicates dispersion; “poor” indicates separation; conditions: for average penetration score: Polyethylene:silicone 1:9, solidified at 25° C. for 2 days, 1/4 cone, after 5 seconds, average of five, larger value means softer; for dissolution state: Polyethylene:silicone mass ratio 1:9, heated at 105° C. for 20 minutes, visual observation
Method: (§1) Oily components being solid at 25° C. and silicones weighed at a mass ratio of 1:9 were heated at 105° C. for 20 minutes to observe the dissolution state. Then, each heated mixture solution was placed in an aluminum cup, allowed to stand at 25° C. for 2 days, and solidified. The penetration score of the solid was measured with a rheometer. The dissolution states according to the visual observation during the heating were shown as follows. “Excellent” indicates uniform dissolution, “good” indicates dispersion, and “poor” indicates separation.
(§2) Moreover, in the rheometer measurement, an automatic cone-penetration measurement test apparatus RPM-101 (manufactured by RIGOSHA CO., LTD.) was used, a ¼ cone was set, and a penetration score after 5 seconds was measured five times. […] A larger value means a softer material.

[2] = Solubility of oily component solid at 25° C. and crystallization test (stearyl alcohol); assay type: physicochemical; parameters: key to dissolution state: excellent: “Excellent” indicates uniform dissolution; “good” indicates dispersion; “poor” indicates separation; conditions: for average penetration score: Stearyl alcohol:silicone 1:9, solidified at 25° C. for 2 days, 1/4 cone, after 5 seconds, average of five, larger value means softer; for dissolution state: Stearyl alcohol:silicone mass ratio 1:9, heated at 105° C. for 20 minutes, visual observation
Method: as §1, §2

[3] = known value given for comparison; cited from earlier work
[4] = Solubility test of ethylhexyl methoxycinnamate in silicones; assay type: physicochemical; parameters: key to dissolution state: “good” indicates dissolution; “poor” indicates separation; conditions: for dissolution state: shaken 24 hours, observed after 12 days at room temperature
Method: Ethylhexyl methoxycinnamate (sometimes referred to as OMC) and each silicone (sometimes referred to as Sx) weighed at a mass ratio shown in Table 1 were shaken and mixed at room temperature for 24 hours. After 12 days at room temperature, the dissolution state was observed. For each dissolution state, “good” indicates dissolution, and “poor” indicates separation.

[5] = assay type: physicochemical
Method: (§3) A 1-L four-necked flask was charged with 282.6 g of 1,1,1,3,5,7,7,7-octamethyltetrasiloxane and 1.4 mg of chloroplatinic acid. An ethylene gas was blown into the mixture under stirring, and a hydrosilylation reaction took place while the temperature was held at […]. The reaction was monitored by gas chromatography. When it was observed that the proportion of a target reached 95% or more, the reaction was terminated. Distillation under reduced pressure (120° C., 10 mmHg) was performed to obtain 3,5-diethyl-1,1,1,3,5,7,7,7-octamethyltetrasiloxane as the target. The boiling point was 227° C. and the viscosity was 2.2 mm^2/s.

[6] = Viscosity (kinematic viscosity, Ostwald viscometer); assay type: physicochemical
Method: Further, since the viscosity of the organosiloxane in the present invention is less than 5 mm^2/s (25° C.), favorable applicability and spreadability are sensed in the same manner as in cases of using decamethylcyclopentasiloxane having a viscosity of 4 mm^2/s (25° C.), or the like. Additionally, the feeling on use is favorable without provoking considerable sticky feeling. If the viscosity is 5 mm^2/s (25° C.) or higher, this causes poor spreading, sticky feeling is provoked, and the feeling on use is poor. Note that the viscosity (kinematic viscosity) values are measured using an Ostwald viscometer.
as §3

| Molecule | average penetration score [1] | average penetration score [2] | boiling point [3] [°C] | dissolution state ([4]; Ratio of OMC:Sx 1:1 (mass)) | dissolution state [1] | dissolution state [2] | dissolution state ([4]; Ratio of OMC:Sx 4:6 (mass)) | Dissolution of ethylhexyl methoxycinnamate compared with other silicones ([4]; versus KF-96L-1cs, KF-96L-1.5cs, KF-96L-2cs, TMF-1.5, KF-995, D6) | boiling point [5] [°C] | viscosity [6] [mm^2/s] |
| --- | --- | --- | --- | --- | --- | --- | --- | --- | --- | --- |
| C[Si]1(C)O[Si](C)(C)O[Si](C)(C)O[Si](C)(C)O[Si](C)(C)O[Si](C)(C)O1 [Example D6, dodecamethylhexasiloxane] | 21.0 | 31.5 | 245 |  |  |  |  |  |  |  |
| C[Si](C)(C)O[Si](C)(C)O[Si](C)(C)O[Si](C)(C)C [KF-96L-1.5cs, decamethyltetrasiloxane] |  |  |  | poor |  |  |  |  |  |  |
| C[Si]1(C)O[Si](C)(C)O[Si](C)(C)O[Si](C)(C)O[Si](C)(C)O1 [D5:KF-995, decamethylpentasiloxane] | 22.4 | 34.4 | 210 |  |  |  |  |  |  |  |
| undecamethylpentasiloxane [KF-96L-2cs] | 18.6 | 34.6 |  | poor | Poor | excellent |  |  |  |  |
| C[Si](C)(C)O[Si](C)(C)O[Si](C)(C)C [KF-96L-1cs, octamethyltrisiloxane] | 30.7 | 31.7 |  | poor | good | excellent |  |  |  |  |
| CC[Si](C)(O[Si](C)(C)C)O[Si](C)(CC)O[Si](C)(C)C (centres unmarked) [Sx of Production Example 1, 3,5-Diethyl-1,1,1,3,5,7,7,7-octamethyltetrasiloxane] | 33.7 | 49.5 |  | good | excellent | excellent | good | dissolved ethylhexyl methoxycinnamate to higher extent | 227 | 2.2 |
